{"source": "patent US20240334934A1", "about": "“FUNGICIDE MIXTURE” (priority 2021, published 2024)", "key": {"[1]": {"system": "Gibberella zeae K6102", "format": "cell-based", "conditions": "CtmC 10 ppm"}, "[2]": {"system": "Botrytis cinerea", "experiment": "Efficacy of purified CtmC in-vitro, microtiter plate growth inhibition", "format": "cell-based", "conditions": "rate 10 ppm; 72 hrs at 24° C.", "method": "(§1) CtmC was dissolved in DMSO (Dimethylsulfoxid) to a final concentration of 1000 ppm to create a stock solution. A second dilutions of 1:10 was made in water+0.025% Tween 20. From this second dilution 10 μl are dispensed into a 96-well plate. To each well, 90 μl of medium with fungal spores are added and mixed, resulting in final CtmC concentrations of 10 ppm. All wells containing CtmC also contain DMSO (1%) and Tween 20 (0.0025%).\nBotrytis cinerea (gray mould): Conidia of the fungus from cryogenic storage were directly mixed into nutrient broth (PDB potato dextrose broth). After placing a solution of the test compounds into a microtiter plate (96-well format) the nutrient broth containing the fungal spores was added."}, "[3]": {"system": "Mycosphaerella arachidis", "experiment": "Efficacy of purified CtmC in-vitro, microtiter plate growth inhibition", "format": "cell-based", "conditions": "rate 10 ppm; approximately 5-6 days at 24° C.", "method": "as §1\nMycosphaerella arachidis (Brown leaf spot of groundnut): Conidia of the fungus from cryogenic storage were directly mixed into nutrient broth (PDB potato dextrose broth). After placing a solution of the test compounds into a microtiter plate (96-well format) the nutrient broth containing the fungal spores was added. The test plates were incubated at 24° C. and the inhibition of growth was determined photometrically after approximately 5-6 days at 620 nm."}, "[4]": {"system": "Fusarium virguliforme isolate 1", "experiment": "Efficacy of purified CtmC, 96-well growth assay, IC50 from OD620", "format": "cell-based", "method": "(§2) A Fusarium virguliforme spore suspension of 25′000 spores/ml was produced in PDB (potato dextrose broth) medium supplemented with 0.3% agar. Isolates of the species originate from Syngenta internal collection (CH).\n(§3) CtmC was dissolved in DMSO (Dimethylsulfoxid) to a final concentration of 1000 ppm to create a stock solution. Different dilutions of CtmC were created in DMSO: 1000 ppm, 330 ppm, 110 ppm, 37 ppm, 12 ppm and 4.1 ppm. 10 μl of DMSO or CtmC solution were transferred to a 96-well-dilution plate and diluted 10-fold with 90 μl 0.025% Tween 20/1H2O solution. Out of the dilution plate, 10 μl were transferred to a 96 well assay plate and 90 μl spore suspension were added to each well.\n(§4) 96 Well plates were then incubated for 72 h at 24° C., 90% relative humidity in the dark. Plates were evaluated by reading the OD at 620 nm.\n(§5) Assays were run on two independent isolates for the species. Each isolate was tested twice (assay 1 and assay 2) and each isolate x fungicide rate combination was duplicated on the test plates.\n(§6) The OD620 was averaged over the two wells and used to calculate IC50 values (fungicide concentration resulting in 50% inhibition of growth) with the program GraphPad prism, resulting in 4 independent IC50 values. No significant differences were found between both isolates tested: […]"}, "[5]": {"system": "Fusarium virguliforme isolate 2", "experiment": "Efficacy of purified CtmC, 96-well growth assay, IC50 from OD620", "format": "cell-based", "method": "as §2, §3, §4, §5, §6"}, "[6]": {"system": "Monographella nivalis", "experiment": "Efficacy of purified CtmC in-vitro, microtiter plate growth inhibition", "format": "cell-based", "conditions": "rate 10 ppm; 72 hrs at 24° C.", "method": "as §1\nMonographella nivalis (snow mould, foot rot of cereals): Conidia of the fungus from cryogenic storage were directly mixed into nutrient broth (PDB potato dextrose broth). After placing a solution of the test compounds into a microtiter plate (96-well format) the nutrient broth containing the fungal spores was added."}, "[7]": {"system": "Puccinia triticina", "experiment": "Leaf disc assay, wheat leaf segments, preventive", "format": "in vivo", "conditions": "rate 20 ppm, 8 dpi", "method": "A CtmC stock was generated at 1000 ppm in DMSO, then Diluted 1:50 in water+Tween 20 at 0.025% resulting in a 20 ppm solution.\nPuccinia triticina (also known as recondite, Brown rust, wheat): Wheat leaf segments are placed on agar in multiwell plates (24-well format) and sprayed with test solutions. After drying, the leaf disks are inoculated with a spore suspension of the fungus. After appropriate incubation the activity of a compound is assessed 8 dpi (days after inoculation) as preventive fungicidal activity."}, "[8]": {"system": "Zymoseptoria tritici", "experiment": "Greenhouse test, wheat, preventative", "format": "in vivo", "conditions": "1 day preventative, EC50 formulation", "method": "Purified Cyclothiazomycin C (CtmC) was formulated as an EC50 formulation. The formulation was diluted in water at rates of 100 ppm and 50 ppm of CtmC. Plants were treated with 400 L/ha of the diluted product supplemented with an adjuvant to improve sticking and spreading, resulting in a treatment of 40 g/ha and 20 g/ha of CtmC, respectively.\nZymoseptoria tritici wheat/preventative (Septoria tritici leaf spot on wheat). 2-week old wheat plants cv. Riband are sprayed in a spray chamber with the formulated test compound diluted in water. The test plants are inoculated by spraying a spore suspension on them one day after application. After an incubation period of 1 day at 22° C./21° C. (day/night) and 95% rh, the inoculated test plants are kept at 22° C./21° C. (day/night) and 70% rh in a greenhouse. Efficacy is assessed directly when an appropriate level of disease appears on untreated check plants (16-19 days after application)."}, "[9]": {"system": "Pyrenophora tritici-repentis K6186", "experiment": "Efficacy of purified CtmC alone in-vitro, 96 well plate, OD 620 nm", "format": "cell-based", "conditions": "CtmC 10 ppm, mycelium inoculum", "method": "CtmC was dissolved in DMSO (Dimethylsulfoxid) to a final concentration of 1000 ppm to create a stock solution. A second dilutions of 1:10 was made in water+0.025% Tween 20. From this second dilution 10 μl are dispensed into a 96 well plate. […] All wells containing CtmC also contain DMSO (1%) and Tween 20 (0.0025%). In the following table 4 some of the species were tested using several distinct isolates (internal strain number indicated) to understand variability among different isolates of the same species sampled in different locations, producing different mycotoxins (genus Fusarium), or expressing various tolerances to fungicides of the SDHI (Succinate Dehydrogenase Inhibitor), SBI (Sterol Biosynthesis Inhibitors) and/or QoI (quinone outside inhibitors) classes (example: Zymoseptoria tritici). Different isolates had variable inoculum density and number of biological repicas, as indicated."}, "[10]": {"system": "Gibberella zeae K6934", "format": "cell-based", "conditions": "CtmC 10 ppm"}, "[11]": {"conditions": "72 h at 24° C., 25'000 spores/ml"}}}
{"smiles": "C=C1NC(=O)CNC(=O)[C@H](CCCCN)NC(=O)[C@@]2(C)NC(=O)/C(=C/C)NC(=O)[C@H]3CSC(=N3)[C@@H](CC(N)=O)CC(=O)c3ccc(nc3[C@@H](C)NC(=O)[C@@H]3CCCN3C1=O)-c1nc(cs1)C1=N[C@H](CS1)C(=O)NC(=C)c1nc(cs1)-c1nc(cs1)C1=N[C@@H](CS1)C(=O)N[C@@H](C(=O)O)CS2", "note": "[CtmC, cyclothiazomycin C]", "values": [{"measurement": "efficacy (%)", "setting": "[1]", "value": 52, "unit": "%"}, {"measurement": "optical density at 620 nm", "setting": "[1]; blank 0.044, untreated 0.733", "value": 0.377}, {"measurement": "control of fungal growth (%)", "setting": "[2]", "value": 90, "unit": "%"}, {"measurement": "control of fungal growth (%)", "setting": "[3]", "value": 100, "unit": "%"}, {"measurement": "IC50 (ppm) Assay-1", "setting": "[4]; [11]", "value": 0.8, "unit": "ppm"}, {"measurement": "IC50 (ppm) Assay-2", "setting": "[4]; [11]", "value": 1.6, "unit": "ppm"}, {"measurement": "IC50 (ppm) average", "setting": "[4]; average of Assay-1 and Assay-2", "value": 1.2, "unit": "ppm"}, {"measurement": "IC50", "setting": "[4]; both tested isolates", "value": "ca. 1 ppm"}, {"measurement": "IC50 (ppm) Assay-1", "setting": "[5]; [11]", "value": 0.7, "unit": "ppm"}, {"measurement": "IC50 (ppm) Assay-2", "setting": "[5]; [11]", "value": 1.5, "unit": "ppm"}, {"measurement": "IC50 (ppm) average", "setting": "[5]; average of Assay-1 and Assay-2", "value": 1.1, "unit": "ppm"}, {"measurement": "IC50", "setting": "[5]; both tested isolates", "value": "ca. 1 ppm"}, {"measurement": "control of fungal growth (%)", "setting": "[6]", "value": 100, "unit": "%"}, {"measurement": "control of fungal growth (%)", "setting": "[7]", "value": 90, "unit": "%"}, {"measurement": "efficacy 20 g/ha (%)", "setting": "[8]; 20 g/ha", "value": 44, "unit": "%"}, {"measurement": "efficacy 40 g/ha (%)", "setting": "[8]; 40 g/ha", "value": 16, "unit": "%"}, {"measurement": "efficacy (%)", "setting": "[9]", "value": 90, "unit": "%"}, {"measurement": "optical density at 620 nm", "setting": "[9]; blank 0.046, untreated 0.508", "value": 0.094}, {"measurement": "efficacy (%)", "setting": "[10]", "value": 48, "unit": "%"}, {"measurement": "optical density at 620 nm", "setting": "[10]; blank 0.052, untreated 0.641", "value": 0.361}]}
